Where two headings read alike, the source gives them in different places.
Biological target: T1, SIRT1 (Homo sapiens, UniProt Q96EB6)
T1 sequence (Q96EB6 1-747): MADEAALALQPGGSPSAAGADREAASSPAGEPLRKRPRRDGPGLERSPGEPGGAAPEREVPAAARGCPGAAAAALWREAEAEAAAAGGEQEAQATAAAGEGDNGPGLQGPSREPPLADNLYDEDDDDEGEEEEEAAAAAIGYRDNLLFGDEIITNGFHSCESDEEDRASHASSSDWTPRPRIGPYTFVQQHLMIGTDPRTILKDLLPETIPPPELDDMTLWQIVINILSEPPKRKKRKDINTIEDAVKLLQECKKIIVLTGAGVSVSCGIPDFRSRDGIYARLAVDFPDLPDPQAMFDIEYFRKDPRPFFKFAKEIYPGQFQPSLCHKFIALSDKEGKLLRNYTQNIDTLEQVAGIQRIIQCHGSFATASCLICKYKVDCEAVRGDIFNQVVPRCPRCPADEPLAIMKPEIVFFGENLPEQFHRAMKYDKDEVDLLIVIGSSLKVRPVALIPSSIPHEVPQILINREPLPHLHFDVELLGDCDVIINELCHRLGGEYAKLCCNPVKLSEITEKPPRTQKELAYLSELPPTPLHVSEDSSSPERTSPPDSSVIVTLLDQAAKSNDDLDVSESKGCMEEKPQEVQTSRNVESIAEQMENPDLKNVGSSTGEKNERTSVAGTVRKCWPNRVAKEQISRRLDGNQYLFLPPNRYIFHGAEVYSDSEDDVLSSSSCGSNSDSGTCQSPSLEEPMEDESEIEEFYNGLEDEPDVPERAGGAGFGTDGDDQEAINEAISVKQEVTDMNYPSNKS
Experiment: Trp mass spectrometry assay (SIRT1 activation)
Type: biochemical
Settings: for Emax: percent maximum fold activation of SIRT1, read-out: Tryp % Fold Act
Outline: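 N-His-tagged SIRT1 (10 nM), expressed in E. coli, was incubated with 0.5 μM Ac-RHKK(Ac)W-NH2 peptide and 120 μM NAD+ for 25 min at 25 °C in HEPES pH 7.5 with […]. The reaction was stopped with formic acid and O-acetyl-ADP-ribose or deacetylated peptide was quantified by mass spectrometry. Results are given as EC1.5 and percent maximal activation relative to DMSO control.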

[1] = Trp mass spectrometry assay, EC1.5 = concentration of test compound that results in 150% activation of SIRT1
[2] = concentration of test compound that results in 150% activation of SIRT1, Trp peptide substrate
[3] = Trp mass spectrometry assay, EC1.5 = concentration giving 150% activation of SIRT1

Row | SMILES | Tryp AVG EC1.5 (μM) [1] | Emax (Trp mass spectrometry assay) [%] | Tryp AVG EC1.5 (μM) [2] | Emax (Trp peptide substrate) [%] | Tryp AVG EC1.5 (μM) [3]
1 | N#Cc1cccc(-c2ccc3c(n2)N(C(=O)Nc2cccc(-c4cnco4)c2)[C@H]2CCN3C2)c1 [Example 178] | A (EC1.5<1 μM) | ≥ 150 | – | – | –
2 | N#Cc1cccc(-c2ccc3c(n2)N(C(=O)Nc2cccnc2)[C@H]2CCN3C2)c1 [Example 180] | A (EC1.5<1 μM) | ≥ 150 | – | – | –
3 | N#Cc1cccc(-c2ccc3c(n2)N(C(=O)Nc2cccnn2)[C@H]2CCCN3C2)c1 [Example 381] | – | – | B (EC1.5 1-25 μM) | ≥ 150 | –
4 | Cn1cc2cc(NC(=O)N3c4nc(-c5cccc(Cl)c5)ccc4N4CC[C@H]3C4)ccc2n1 [Example 118] | A (EC1.5<1 μM) | ≥ 150 | – | – | –
5 | O=C(Nc1cccc(-c2cnco2)c1)N1c2nc(-c3cncc(F)c3)ccc2N2CC[C@H]1C2 [Example 722] | – | ≥ 150 | – | – | A (EC1.5<1 μM)
6 | O=C(Nc1cncc(F)c1)N1c2nc(-c3cccc(OC(F)(F)F)c3)ccc2N2CC[C@H]1C2 [Example 174] | A (EC1.5<1 μM) | ≥ 150 | – | – | –
7 | O=C(Nc1ccccn1)N1c2nc(-c3cc(Cl)cc(Cl)c3)ccc2N2CC[C@H]1C2 [Example 324] | – | – | A (EC1.5<1 μM) | ≥ 150 | –
8 | O=C(Nc1ccnc(OCC(O)CO)n1)N1c2nc(-c3cccc(F)c3)ccc2N2CC[C@H]1C2 (some centres unmarked) [Example 65] | – | ≥ 150 | – | – | –
9 | O=C(Nc1ccccn1)N1c2nc(-c3cccc(CC(O)CO)c3)ccc2N2CC[C@H]1C2 (some centres unmarked) [Example 354] | – | – | A (EC1.5<1 μM) | ≥ 150 | –
10 | CC(C)c1cccc(C(C)C)c1NC(=O)N1c2nc(-c3cccc(C(F)(F)F)c3)ccc2N2CC[C@H]1C2 [Example 67] | – | < 150 | – | – | –
11 | Cc1nc(NC(=O)N2c3nc(-c4cncc(C(F)(F)F)c4)ccc3N3CCC[C@H]2C3)sc1C [Example 427] | – | – | A (EC1.5<1 μM) | ≥ 150 | –
12 | CS(=O)(=O)c1cccc(-c2ccc3c(n2)N(C(=O)Nc2cccc(-c4cnco4)c2)[C@H]2CCN3C2)c1 [Example 710] | – | ≥ 150 | – | – | A (EC1.5<1 μM)
13 | O=C(Nc1cccc(-c2cnco2)n1)N1c2nc(-c3cccc(C(F)(F)F)c3)ccc2N2CCC1CC2 [Example 596] | – | – | A (EC1.5<1 μM) | ≥ 150 | –
14 | O=C(Nc1cnccn1)N1c2nc(-c3cccc(Cl)c3)ccc2N2C[C@@H](O)[C@H]1C2 [Example 678] | – | < 150 | – | – | C (EC1.5>25 μM)
15 | COc1cncc(NC(=O)N2c3nc(-c4cccc(Cl)c4)ccc3N3CC[C@H]2C3)n1 [Example 121] | A (EC1.5<1 μM) | ≥ 150 | – | – | –
16 | O=C(Nc1ccncc1)N1c2nc(-c3cccc(Cl)c3)ccc2N2CC[C@H]1C2 [Example 122] | A (EC1.5<1 μM) | ≥ 150 | – | – | –
17 | O=C(Nc1cccc(-c2ccoc2)n1)N1c2nc(-c3cccc(C(F)(F)F)c3)ccc2N2CC[C@H]1C2 [Example 654] | – | ≥ 150 | – | – | A (EC1.5<1 μM)
18 | Cc1cncc(NC(=O)N2c3nc(N4CCCC(C(F)(F)F)C4)ccc3N3CC[C@H]2C3)c1 (some centres unmarked) [Example 230] | – | – | A (EC1.5<1 μM) | ≥ 150 | –
19 | O=C(Nc1cncc(F)c1)N1c2nc(-c3ccnc(N4CC[C@@H](F)C4)c3)ccc2N2CC[C@H]1C2 [Example 464] | – | – | B (EC1.5 1-25 μM) | ≥ 150 | –
20 | O=C(Nc1cccnc1)N1c2nc(-c3cncc(Cl)c3)ccc2N2CC[C@H]1C2 [Example 526] | – | – | A (EC1.5<1 μM) | ≥ 150 | –
21 | O=C(Nc1ccncn1)N1c2nc(-c3cncc(C(F)(F)F)c3)ccc2N2C[C@@H](O)[C@H]1C2 [Example 700] | – | ≥ 150 | – | – | B (EC1.5 1-25 μM)
22 | Cc1cccnc1NC(=O)N1c2nc(-c3cccc(C(F)(F)F)c3)ccc2N2CCC[C@H]1C2 [Example 35] | – | ≥ 150 | – | – | –
23 | O=C(Nc1cncc(F)c1)N1c2nc(-c3cccc(Cl)c3)ccc2N2CC[C@@H]1C2 [Example 218] | – | – | A (EC1.5<1 μM) | ≥ 150 | –
24 | CC(=O)N1CCCN(c2ccc3c(n2)N(C(=O)Nc2ccncn2)[C@H]2CCCN3C2)CC1 [Example 434] | – | – | C (EC1.5>25 μM) | < 150 | –
25 | O=C(Nc1ccc2c(c1)CCC2)N1c2nc(-c3cccc(C(F)(F)F)c3)ccc2N2CC[C@H]1C2 [Example 624] | – | – | B (EC1.5 1-25 μM) | ≥ 150 | –

Row | SMILES | Tryp AVG EC1.5 (μM) [1] | Emax (Trp mass spectrometry assay) [%] | Tryp AVG EC1.5 (μM) [2] | Emax (Trp peptide substrate) [%] | Tryp AVG EC1.5 (μM) [3]
26 | CS(=O)(=O)c1ccc(-c2ccc3c(n2)N(C(=O)Nc2ccccn2)[C@H]2CCN3C2)cc1 [Example 326] | – | – | B (EC1.5 1-25 μM) | ≥ 150 | –
27 | O=C(Nc1ccccn1)N1c2nc(-c3ccnc(C(F)(F)F)c3)ccc2N2CC[C@H]1C2 [Example 142] | A (EC1.5<1 μM) | ≥ 150 | – | – | –
28 | Cn1cc(NC(=O)N2c3nc(-c4cccc(Cl)c4)ccc3N3CC[C@H]2C3)cn1 [Example 108] | B (EC1.5 1-25 μM) | ≥ 150 | – | – | –
29 | O=C(Nc1ccccn1)N1c2nc(-c3cccc(Cl)c3)ccc2N2CCC1CC2 [Example 533] | – | – | B (EC1.5 1-25 μM) | ≥ 150 | –
30 | Cn1cc(-c2ccc3c(n2)N(C(=O)Nc2ccccn2)[C@H]2CCN3C2)cn1 [Example 349] | – | – | B (EC1.5 1-25 μM) | ≥ 150 | –
31 | O=C(Nc1ccc(F)cn1)N1c2nc(-c3cccc(C(F)(F)F)c3)ccc2N2CC[C@H]1C2 [Example 46] | – | ≥ 150 | – | – | –
32 | CC(C)(C)OC(=O)NCC#Cc1ccc(NC(=O)N2c3nc(-c4cccc(C(F)(F)F)c4)ccc3N3CC[C@H]2C3)cc1-c1cnco1 [Example 751] | – | ≥ 150 | – | – | A (EC1.5<1 μM)
33 | CC(C)(C)OC(=O)NCCCc1ccc(NC(=O)N2c3nc(-c4cccc(C(F)(F)F)c4)ccc3N3CCC[C@H]2C3)cc1-c1cnco1 [Example 752] | – | ≥ 150 | – | – | A (EC1.5<1 μM)
34 | O=C(Nc1cncc(F)c1)N1c2nc(-c3cccc(C(F)(F)F)c3)ccc2N2CCC[C@H]1C2 [Example 45] | – | ≥ 150 | – | – | –
35 | Cn1ccc(-c2ccc3c(n2)N(C(=O)Nc2ccccn2)[C@H]2CCN3C2)n1 [Example 331] | – | – | B (EC1.5 1-25 μM) | ≥ 150 | –
36 | Cc1ccncc1-c1ccc2c(n1)N(C(=O)Nc1cccnn1)[C@H]1CCCN2C1 [Example 520] | – | – | C (EC1.5>25 μM) | ≥ 150 | –
37 | Cn1cc(-c2ccc3c(n2)N(C(=O)Nc2cccnc2)[C@H]2CCN3C2)cn1 [Example 395] | – | – | B (EC1.5 1-25 μM) | ≥ 150 | –
38 | O=C(NCCCc1cccnc1)N1c2nc(-c3cccc(C(F)(F)F)c3)ccc2N2CC[C@H]1C2 [Example 674] | – | ≥ 150 | – | – | B (EC1.5 1-25 μM)
39 | COc1nccc(NC(=O)N2c3nc(-c4cccc(C(F)(F)F)c4)ccc3N3CC[C@H]2C3)n1 [Example 47] | – | ≥ 150 | – | – | –
40 | CS(=O)(=O)Nc1cccc(-c2ccc3c(n2)N(C(=O)Nc2cnccn2)[C@H]2CCN3C2)c1 [Example 418] | – | – | B (EC1.5 1-25 μM) | ≥ 150 | –
41 | O=C(Nc1nnc(-c2cccnc2)s1)N1c2nc(-c3cccc(C(F)(F)F)c3)ccc2N2CC[C@H]1C2 [Example 651] | – | ≥ 150 | – | – | A (EC1.5<1 μM)
42 | COc1cc(NC(=O)N2c3nc(-c4cncc(C(F)(F)F)c4)ccc3N3C[C@@H](O)[C@H]2C3)ncn1 [Example 696] | – | ≥ 150 | – | – | B (EC1.5 1-25 μM)
43 | O=C(Nc1cccc(-c2cnco2)n1)N1c2nc(-c3cccc(Cl)c3)ccc2N2C[C@@H](O)[C@H]1C2 [Example 693] | – | ≥ 150 | – | – | A (EC1.5<1 μM)
44 | O=C(Nc1ccncc1F)N1c2nc(-c3ccccc3C(F)(F)F)ccc2N2CC[C@H]1C2 [Example 152] | C (EC1.5>25 μM) | ≥ 150 | – | – | –
45 | Cc1cnc(NC(=O)N2c3nc(-c4cccc(C(F)(F)F)c4)ccc3N3CC[C@H]2C3)nc1-c1ccccc1 [Example 79] | – | ≥ 150 | – | – | –
46 | O=C(Nc1cnccn1)N1c2nc(-c3cc(C(F)(F)F)cc(C(F)(F)F)c3)ccc2C2CC[C@H]1C2 [Example 363] | – | – | B (EC1.5 1-25 μM) | ≥ 150 | –
47 | O=C(Nc1ccnc(OCC(O)CO)n1)N1c2nc(-c3cccc(Cl)c3)ccc2N2CC[C@H]1C2 (some centres unmarked) [Example 54] | – | ≥ 150 | – | – | –
48 | Cc1ccc(-c2ccc3c(n2)N(C(=O)Nc2ccc(F)cn2)[C@H]2CCN3C2)cn1 [Example 237] | – | – | B (EC1.5 1-25 μM) | ≥ 150 | –
49 | Cc1csc(NC(=O)N2c3nc(-c4cccc(C(F)(F)F)c4)ccc3N3CC[C@H]2C3)n1 [Example 56] | – | ≥ 150 | – | – | –

— patent publication US9765075B2, “Substituted bridged urea analogs as sirtuin modulators” (GLAXOSMITHKLINE LLC, priority 2013, dated 2017)
